Paper PMC12028158, “Synthesis and In Vitro Evaluation of the Anticancer Effect of Novel Phosphonium Vindoline Derivatives” (International Journal of Molecular Sciences, 2025)
Read-outs that look alike come from different tables or passages of the source.

Tests used:
Type in all cases: cell-based
HL-60(TB) = test: NCI60 five-dose screen; details: Homo sapiens, HL-60
SR = test: NCI60 five-dose screen; details: Homo sapiens
HOP-92 = test: NCI60 five-dose screen; details: Homo sapiens, HOP-92
NCI-H23 = test: NCI60 five-dose screen; details: Homo sapiens, NCI-H23
NCI-H322M [1] = test: NCI60 five-dose screen; details: Homo sapiens
COLO 205 = test: NCI60 five-dose screen; details: Homo sapiens, COLO 205
KM12 = test: NCI60 five-dose screen; details: Homo sapiens, KM12
SF-268 = test: NCI60 five-dose screen; details: Homo sapiens, SF-268
SF-539 = test: NCI60 five-dose screen; details: Homo sapiens, SF-539
MALME-3M [2] = test: NCI60 five-dose screen; details: Homo sapiens, Malme-3M
NCI/ADR-RES = test: NCI60 five-dose screen; details: Homo sapiens
DU-145 = test: NCI60 five-dose screen; details: Homo sapiens, DU-145
HS 578T = test: NCI60 five-dose screen; details: Homo sapiens, Hs-578T
Breast Cancer panel = test: NCI60 five-dose screen, panel mean; details: Homo sapiens
[3] = tested on: 60 human tumor cell lines (NCI60); test: NCI60 five-dose screen, overall mean
K-562 = test: NCI60 one-dose screen; details: Homo sapiens, K562, read-out: Growth percent
RPMI-8226 = test: NCI60 one-dose screen; details: Homo sapiens, RPMI-8226, read-out: Growth percent
A549/ATCC = test: NCI60 one-dose screen; details: Homo sapiens, A549, read-out: Growth percent
NCI-H322M [4] = test: NCI60 one-dose screen; details: Homo sapiens, read-out: Growth percent
NCI-H460 = test: NCI60 one-dose screen; details: Homo sapiens, NCI-H460, read-out: Growth percent
HCT-116 = test: NCI60 one-dose screen; details: Homo sapiens, HCT-116, read-out: Growth percent
SNB-19 = test: NCI60 one-dose screen; details: Homo sapiens, SNB-19, read-out: Growth percent
SNB-75 = test: NCI60 one-dose screen; details: Homo sapiens, SNB-75, read-out: Growth percent
MALME-3M [5] = test: NCI60 one-dose screen; details: Homo sapiens, Malme-3M, read-out: Growth percent
SK-MEL-28 = test: NCI60 one-dose screen; details: Homo sapiens, SK-MEL-28, read-out: Growth percent
SK-MEL-5 = test: NCI60 one-dose screen; details: Homo sapiens, SK-MEL-5, read-out: Growth percent
OVCAR-3 = test: NCI60 one-dose screen; details: Homo sapiens, OVCAR-3, read-out: Growth percent
OVCAR-4 = test: NCI60 one-dose screen; details: Homo sapiens, OVCAR-4, read-out: Growth percent
OVCAR-5 = test: NCI60 one-dose screen; details: Homo sapiens, OVCAR-5, read-out: Growth percent
SK-OV-3 = test: NCI60 one-dose screen; details: Homo sapiens, SK-OV-3, read-out: Growth percent
ACHN = test: NCI60 one-dose screen; details: Homo sapiens, read-out: Growth percent
SN12C = test: NCI60 one-dose screen; details: Homo sapiens, read-out: Growth percent
[6] = tested on: 60 human tumor cell lines (NCI60); test: NCI60 one-dose screen, overall mean; details: for activity at 10 µM: Homo sapiens, 60 cell, read-out: Mean growth percent; for average reduction / average cell death: one-dose, 10 µM, average over cell lines
[7] = 60 cell, read-out: Mean GI50, mean over all 60 cell lines
[8] = read-out: GI50 Mean, mean over all 60 human cancer cell lines

| Structure (SMILES) | GI50 (HL-60(TB)) | GI50 (SR) | GI50 (HOP-92) | GI50 (NCI-H23) | GI50 (NCI-H322M [1]) | GI50 (COLO 205) | GI50 (KM12) | GI50 (SF-268) | GI50 (SF-539) | GI50 (MALME-3M [2]) | GI50 (NCI/ADR-RES) | GI50 (DU-145) | GI50 (HS 578T) | GI50 [3, 7] | activity at 10 µM (K-562) | activity at 10 µM (RPMI-8226) | activity at 10 µM (A549/ATCC) | activity at 10 µM (NCI-H322M [4]) | activity at 10 µM (NCI-H460) | activity at 10 µM (HCT-116) | other results |
| --- | --- | --- | --- | --- | --- | --- | --- | --- | --- | --- | --- | --- | --- | --- | --- | --- | --- | --- | --- | --- | --- |
| CC[C@]12C=CCN3CC[C@@]4(c5ccc(OC)cc5N(C)[C@H]4[C@@](O)(C(=O)OC)[C@@H]1OC(=O)CCC[P+](C1CCCCC1)(C1CCCCC1)C1CCCCC1)[C@@H]32 [9d] | 0.322 µM | 1.35 µM | 1.01 µM | 2.31 µM | 5.79 µM | 0.43 µM | 1.63 µM | 3.23 µM | 2.94 µM | 1.46 µM | 35.6 µM | 3.75 µM | 2.45 µM | 3.8 µM | 3.31% | -43.5% | 14.1% | 24.5% | 4.64% | 0.16% | GI50 (Breast Cancer panel; read-out: Mean GI50): 1.54 µM; activity at 10 µM (SNB-19): -60%; activity at 10 µM (SNB-75): -61.4%; activity at 10 µM (MALME-3M [5]): -96.1%; activity at 10 µM (SK-MEL-28): -85.9%; activity at 10 µM (SK-MEL-5): -98.4%; activity at 10 µM (OVCAR-3): -48.6%; activity at 10 µM (OVCAR-4): 17.7%; activity at 10 µM (OVCAR-5): 11%; activity at 10 µM (SK-OV-3): -7.72%; activity at 10 µM (ACHN): 32%; activity at 10 µM (SN12C): -40.5%; activity at 10 µM [6]: -32.7% |
| CC[C@]12C=CCN3CC[C@@]4(c5ccc(OC)cc5N(C)[C@H]4[C@@](O)(C(=O)OC)[C@@H]1OC(=O)CCCC[P+](c1ccc(C)cc1)(c1ccc(C)cc1)c1ccc(C)cc1)[C@@H]32 [10a] | 0.221 µM | 0.36 µM | 0.49 µM | 0.855 µM | 2.67 µM | 0.2 µM | 0.596 µM | 1.17 µM | 1.22 µM | 1.17 µM | 12 µM | 1.15 µM | 1.2 µM | < 3 µM | 0.8% | -46% | -92.2% | -97.6% | -86.6% | -93.5% | GI50 (Breast Cancer panel; read-out: GI50 Mean): 0.58 µM; GI50 [3, 8]: 1.23 µM; activity at 10 µM (SNB-19): -96.5%; activity at 10 µM (SNB-75): -87.6%; activity at 10 µM (MALME-3M [5]): -96%; activity at 10 µM (SK-MEL-28): -97.8%; activity at 10 µM (SK-MEL-5): -98.5%; activity at 10 µM (OVCAR-3): -77.1%; activity at 10 µM (OVCAR-4): -68.9%; activity at 10 µM (OVCAR-5): -96%; activity at 10 µM (SK-OV-3): -82.3%; activity at 10 µM (ACHN): -99.3%; activity at 10 µM (SN12C): -88.5%; activity at 10 µM [6]: -78.7%; average reduction / average cell death [6]: more than 70% |
| CC[C@]12C=CCN3CC[C@@]4(c5ccc(OC)cc5N(C)[C@H]4[C@@](O)(C(=O)OC)[C@@H]1OC(=O)CCCC[P+](c1ccc(OC)cc1)(c1ccc(OC)cc1)c1ccc(OC)cc1)[C@@H]32 [10b] | 0.234 µM | 0.428 µM | 0.52 µM | 1.19 µM | 2.79 µM | 0.214 µM | 0.675 µM | 1.47 µM | 1.52 µM | 1.13 µM | 20.5 µM | 16 µM | 1.51 µM | < 3 µM | 1.01% | -68.8% | -83.7% | -89.7% | -87% | -94.9% | GI50 (Breast Cancer panel; read-out: GI50 Mean): 0.7 µM; GI50 [3, 8]: 2.2 µM; activity at 10 µM (SNB-19): -95.7%; activity at 10 µM (SNB-75): -95.4%; activity at 10 µM (MALME-3M [5]): -97.2%; activity at 10 µM (SK-MEL-28): -96.8%; activity at 10 µM (SK-MEL-5): -97%; activity at 10 µM (OVCAR-3): -71.8%; activity at 10 µM (OVCAR-4): -37.7%; activity at 10 µM (OVCAR-5): -98.6%; activity at 10 µM (SK-OV-3): -82.5%; activity at 10 µM (ACHN): -49.2%; activity at 10 µM (SN12C): -95.3%; activity at 10 µM [6]: -70.4%; average reduction / average cell death [6]: more than 70% |
